Assay results: US9303000B2, “Olefin containing nuclear transport modulators and uses thereof” (KARYOPHARM THERAPEUTICS INC., priority 2011, dated 2016)
pIC50: −log10 of the molar value. Like-named read-outs stand apart in the source and are kept apart here.

Assays:
HCT-116 tumor cells = test: HCT-116 colorectal carcinoma xenograft model; type: in vivo, mice
Description: FIG. 1 is a graph depicting the results of an HCT-116 colorectal carcinoma xenograft model. HCT-116 cells were inoculated into female athymic Balb c. nu^+/nu^+ mice. Once tumors reached an average volume of 200 mm^3, the animals were dosed with vehicle, 25 mg/kg 5-fluorouracil intraperitoneally and 75 mg/kg I-29 subcutaneously.
FIG. 2 is a graph depicting the results of an HCT-116 colorectal carcinoma xenograft model. HCT-116 cells were inoculated into female athymic Balb c. nu^+/nu^+ mice. Once tumors reached an average volume of 100 mm^3 the animals were dosed with vehicle, 50 mg/kg 5-fluorouracil intraperitoneally and 50 and 100 mg/kg I-34 orally. […] Mice were euthanized on Day 26 due to 20% weight loss. At Day 37, I-34 administered QDX5/week at 50 mg/kg inhibited tumor growth by 85%.
Female balb c nude mice (nu/nu) aged 6 to 8 weeks were obtained from Charles River Laboratories and were randomly and prospectively divided into six groups of ten mice. Mice were inoculated s.c. in flanks with 1×10^6 HCT-116 tumor cells. When cells reached 100-200 mm^3, animals were randomized into treatment groups of 5-10 mice each, excluding mice with the largest and smallest tumors. Mice were treated with vehicle, standard of care drugs (5-FU) or compounds of the invention at the indicated doses and regimen. Animals' weights and condition were recorded daily, and tumors were measured daily. On Day 37 (2 hours after the final dose), all mice were sacrificed, plasma and tumor tissue were collected for PK/PD analysis. Tumors were divided in 4 sections (3, flash-frozen in separate vials and 1 fixed in formalin for paraffin block preparation).
HCT-116 Colorectal tumor cells (ATCC# CCL-247) were grown in the DMEM tissue culture media with 10% fetal bovine serum and 1% penicillin/streptomycin. Cells were routinely trypsinized and passaged 1:4. On the day of implantation, cells were washed in PBS, trypsinized and resuspended in complete media. Cells were washed 3× in serum free medium. Cells were resuspended to a density of 1×10^7 cells/ml prior to being implanted s.c. into mice in a volume of 0.1 mL using a 23G needle.
Tumors were monitored daily. Tumors appearing exceeding 1500 mm^3 were measured, and animals with tumors greater than 1500 mm^3 and/or tumors that became necrotic and/or hindered movement were euthanized. Tumors were measured twice weekly by measuring each tumor in 2 dimensions, along the largest dimension (length, L) and perpendicular to this dimension (width, W). Tumor weights were calculated using the standard formula: (L×W^2)/2. The mean tumor weight and standard error of the mean were calculated for each group at each time point.
Statistical differences between treatment groups were determined using appropriate statistical techniques. A one-way ANOVA or ANOVA on ranks was used to evaluate the area-under the curve for weight gain and tumor volume.

Crm1 [1] = target: T1, Crm1 (Homo sapiens, UniProt O14980); test: Inhibition of nuclear export (RevGFP assay) / MTT cytotoxicity, Table 1
T1 sequence (O14980 whole entry): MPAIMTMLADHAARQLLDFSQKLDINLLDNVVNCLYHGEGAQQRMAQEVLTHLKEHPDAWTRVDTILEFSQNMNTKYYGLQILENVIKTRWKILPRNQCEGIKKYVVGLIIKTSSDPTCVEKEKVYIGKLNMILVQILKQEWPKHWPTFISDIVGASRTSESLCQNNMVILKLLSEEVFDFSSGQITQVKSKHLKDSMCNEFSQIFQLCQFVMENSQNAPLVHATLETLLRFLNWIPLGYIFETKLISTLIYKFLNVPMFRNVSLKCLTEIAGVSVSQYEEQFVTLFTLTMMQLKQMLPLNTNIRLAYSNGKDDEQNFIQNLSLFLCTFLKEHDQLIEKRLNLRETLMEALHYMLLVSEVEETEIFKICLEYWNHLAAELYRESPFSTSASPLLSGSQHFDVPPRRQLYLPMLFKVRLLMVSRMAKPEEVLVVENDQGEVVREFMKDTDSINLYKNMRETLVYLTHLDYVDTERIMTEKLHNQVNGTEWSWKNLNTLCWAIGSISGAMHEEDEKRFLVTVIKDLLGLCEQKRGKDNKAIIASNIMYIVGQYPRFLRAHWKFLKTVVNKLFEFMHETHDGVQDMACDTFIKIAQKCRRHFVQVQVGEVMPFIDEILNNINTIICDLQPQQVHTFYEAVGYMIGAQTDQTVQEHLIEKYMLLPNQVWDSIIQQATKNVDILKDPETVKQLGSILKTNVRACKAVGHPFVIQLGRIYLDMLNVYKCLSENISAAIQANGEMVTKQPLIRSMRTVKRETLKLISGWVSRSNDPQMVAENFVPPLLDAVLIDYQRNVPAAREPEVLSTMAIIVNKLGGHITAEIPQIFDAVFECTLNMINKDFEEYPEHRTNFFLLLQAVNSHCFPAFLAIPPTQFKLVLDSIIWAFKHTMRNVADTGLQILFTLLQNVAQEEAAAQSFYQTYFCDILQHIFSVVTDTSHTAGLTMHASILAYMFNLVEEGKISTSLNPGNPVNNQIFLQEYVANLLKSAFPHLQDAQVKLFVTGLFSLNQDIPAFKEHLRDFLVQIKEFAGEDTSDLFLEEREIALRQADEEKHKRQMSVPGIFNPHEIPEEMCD
Description: (§1) The evaluation of the affinity of compounds for the Crm1 protein was determined in the RevGFP assay.
(§2) In this assay, U2OS-RevGFP cells are seeded onto clear-bottom, black, 384-well plates the day before the experiment. Compounds are serially diluted 1:2 starting from 40 μM in a separate 384-well plate in DMEM, and then transferred onto cells. Cells are incubated with compound for ˜1 hr before fixation with 3.7% formaldehyde and nuclei staining with Hoechst 33258. The amount of GFP in cell nuclei will be measured and compound IC50s determined (Kau et al, 2003).
(§3) The MTT cell proliferation assay was used to study the cytotoxic properties of the compounds. The assay was performed according to the method described by Roche Molecular Biochemicals with minor modifications. The assay is based on the cleavage of the tetrazolium salt, MTT, in the presence of an electron-coupling reagent. The water-insoluble formazan salt produced must be solubilized in an additional step. Cells, grown in a 96-well tissue culture plate, are incubated with the MTT solution for approximately 4 hours. After this incubation period, a water-insoluble formazan dye is formed. After solubilization, the formazan dye is quantitated using a scanning multi-well spectrophotometer (ELISA reader). […] The cells were seeded at 1.5×10^4 cells in each well of 96-well plate in 200 μL of fresh culture medium and were allowed to attach for overnight. The stock solutions of the compounds were diluted in cell culture medium to obtain eight concentrations of each drug, ranging from 1 nM to 20 μM. After 72 h of treatment the medium was aspirated and the cells were washed once with sterile 1×PBS. Each plate contained the samples, negative control and blank. The DMSO at less than 1% v/v was used as a negative control. […] The following formula was used to calculate the percent of inhibition: Inhibition (%)=(1−(ODo/OD))×100.

MM1.S cells = test: MM1.S multiple myeloma xenograft model; type: in vivo, mice
Description: FIG. 3 is a graph depicting the results of a MM1.S multiple myeloma model. MM1.S cells were inoculated into female athymic Balb c. nu^+/nu^+mice. Once tumors reached an average volume of 780 mm^3 the animals were dosed with vehicle and 75 mg/kg I-1 subcutaneously. Following 3 doses I-1 caused 50% reduction in tumor growth in a statistically significant manner.
FIG. 4 is a graph depicting the results of a MM1.S multiple myeloma model. MM1.S cells were inoculated into female athymic nu^+/nu^+ mice. Once tumors reached an average volume of 1400 mm^3 the animals were dosed with vehicle or 50 mg/kg I-29 subcutaneously every day. On the fourth day of dosing, vehicle group animals (n=10) reached an average volume of 2300 mm^3 and had to be euthanized due to tumor burden and poor health.
105 female athymic nude mice (8-9 weeks old, Harlan, USA) were grouped into […]. Animals were randomized such that the group average tumor volume was between 100-200 mm^3. Group average body weights were matched as closely as possible once average tumor volumes were randomized. The live-phase portion of this study will be 28 days in duration from the start of until the average group tumor volume reaches 2,000 mm^3, whichever comes first. Mice are to be euthanized with samples collected as and when they individually reach a tumor volume of approximately 2,000 mm^3.
MM1s Cell Culture. […]
Tumor volumes were monitored three times per week throughout the study (typically Monday, Wednesday and Friday) and calculated using the formula: Tumor volume=½(a^2 b); where a=width (smallest dimension) and b=length. […]
Animals were monitored as a group and their tumor volumes were measured three times per week at the same time of day. […]

Crm1 [2] = target: T1, Crm1
Description: as §1, §2, §3

[3] = 50 mg/kg subcutaneously every day, following 8 doses, FIG. 4

Molecule	pIC50 (Crm1 [1])	also measured
O=c1[nH]cc(F)c(=O)[nH]1 [Compound 5-FU, 5-fluorouracil, reference compound]		efficacy on tumor growth (HCT-116 tumor cells; 25 mg/kg intraperitoneally, 3 weeks of dosing, FIG. 1): did not display efficacy; inhibition of tumor growth compared to vehicle group (HCT-116 tumor cells; 50 mg/kg intraperitoneally, Day 37, FIG. 2): no inhibition of tumor growth was observed; condition of animals (HCT-116 tumor cells; 50 mg/kg intraperitoneally, by Day 37, FIG. 2): euthanized due to poor condition; inhibition of tumor growth (HCT-116 tumor cells; 50 mg/kg intraperitoneally, first 3 weeks, FIG. 2): inhibited tumor growth during the first 3 weeks in a statistically significant manner
COc1cc(-c2ncn(/C=C\c3nnco3)n2)cc(C(F)(F)F)c1 [Compound I-1, (Z)-2-(2-(3-(3-methoxy-5-(trifluoromethyl)phenyl)-1H-1,2,4-triazol-1-yl)vinyl)-1,3,4-oxadiazole]	> 6.00	reduction in tumor growth (MM1.S cells; 75 mg/kg subcutaneously, following 3 doses, FIG. 3): 50%
COc1cc(-c2ncn(/C=C\c3nnc(C)o3)n2)cc(C(F)(F)F)c1 [Compound I-2, (Z)-2-(2-(3-(3-methoxy-5-(trifluoromethyl)phenyl)-1H-1,2,4-triazol-1-yl)vinyl)-5-methyl-1,3,4-oxadiazole]	> 6.00	
COc1cc(-c2ncn(/C=C\c3nnco3)n2)cc(Cl)n1 [Compound I-10, (Z)-2-(2-(3-(2-chloro-6-methoxypyridin-4-yl)-1H-1,2,4-triazol-1-yl)vinyl)-1,3,4-oxadiazole]	> 6.00	
COc1cc(-c2ncn(/C=C\c3ccccn3)n2)cc(C(F)(F)F)c1 [Compound I-21, (Z)-2-(2-(3-(3-methoxy-5-(trifluoromethyl)phenyl)-1H-1,2,4-triazol-1-yl)vinyl)pyridine]	< 5.00	
Clc1cccc(-c2ncn(/C=C\c3nnco3)n2)c1 [Compound I-26, (Z)-2-(2-(3-(3-chlorophenyl)-1H-1,2,4-triazol-1-yl)vinyl)-1,3,4-oxadiazole]	> 6.00	
Clc1cccc(-c2ncn(/C=C/c3nnco3)n2)c1 [Compound I-27, (E)-2-(2-(3-(3-chlorophenyl)-1H-1,2,4-triazol-1-yl)vinyl)-1,3,4-oxadiazole]	5.00 to 6.00	
CC(C)Oc1cc(Cl)cc(-c2ncn(/C=C\c3nnco3)n2)c1 [Compound I-28, (Z)-2-(2-(3-(3-chloro-5-isopropoxyphenyl)-1H-1,2,4-triazol-1-yl)vinyl)-1,3,4-oxadiazole]	> 6.00	
CC(C)Oc1cc(-c2ncn(/C=C\c3nnco3)n2)cc(C(F)(F)F)c1 [Compound I-29, (Z)-2-(2-(3-(3-isopropoxy-5-(trifluoromethyl)phenyl)-1H-1,2,4-triazol-1-yl)vinyl)-1,3,4-oxadiazole]	> 6.00	reduction in tumor growth (HCT-116 tumor cells; 75 mg/kg subcutaneously, 5 times/week, following 3 weeks of dosing, FIG. 1): 50%; animals still alive (survival) (MM1.S cells; [3]): 10 out of 12; reduction in tumor growth (MM1.S cells; [3]): 50%
CC(C)Oc1cc(-c2ncn(/C=C\c3nnco3)n2)cc(C(F)(F)F)n1 [Compound I-30, (Z)-2-(2-(3-(2-isopropoxy-6-(trifluoromethyl)pyridin-4-yl)-1H-1,2,4-triazol-1-yl)vinyl)-1,3,4-oxadiazole]	> 6.00	
CC(C)Oc1cc(-c2ncn(/C=C\c3nnco3)n2)cc(Cl)n1 [Compound I-31, (Z)-2-(2-(3-(2-chloro-6-isopropoxypyridin-4-yl)-1H-1,2,4-triazol-1-yl)vinyl)-1,3,4-oxadiazole]	> 6.00	
CS(=O)(=O)c1cc(-c2ncn(/C=C\c3nnco3)n2)cc(C(F)(F)F)c1 [Compound I-33, (Z)-2-(2-(3-(3-(methylsulfonyl)-5-(trifluoromethyl)phenyl)-1H-1,2,4-triazol-1-yl)vinyl)-1,3,4-oxadiazole]	> 6.00	
FC(F)(F)c1cc(-c2ncn(/C=C\c3nnco3)n2)cc(C(F)(F)F)c1 [Compound I-34, (Z)-2-(2-(3-(3,5-bis(trifluoromethyl)phenyl)-1H-1,2,4-triazol-1-yl)vinyl)-1,3,4-oxadiazole]	> 6.00	inhibition of tumor growth (HCT-116 tumor cells; 50 mg/kg orally QDX5/week, Day 37, FIG. 2): 85%; weight loss (HCT-116 tumor cells; 100 mg/kg orally QDX5/week, Day 26, mice euthanized, FIG. 2): 20%; reduction of tumor growth (HCT-116 tumor cells; 100 mg/kg orally QDX5/week, Day 26, FIG. 2): complete reduction of tumor growth
N#Cc1cc(-c2ncn(/C=C\c3nnco3)n2)cc(C(F)(F)F)c1 [Compound I-35, (Z)-3-(1-(2-(1,3,4-oxadiazol-2-yl)vinyl)-1H-1,2,4-triazol-3-yl)-5-(trifluoromethyl)benzonitrile]	> 6.00	
Oc1cc(-c2ncn(/C=C\c3nnco3)n2)cc(C(F)(F)F)c1 [Compound I-36, (Z)-3-(1-(2-(1,3,4-oxadiazol-2-yl)vinyl)-1H-1,2,4-triazol-3-yl)-5-(trifluoromethyl)phenol]	> 6.00	
CC(C)Oc1cc(-c2ncn(/C=C\c3ccccn3)n2)cc(C(F)(F)F)c1 [Compound I-37, (Z)-2-(2-(3-(3-isopropoxy-5-(trifluoromethyl)phenyl)-1H-1,2,4-triazol-1-yl)vinyl)pyridine]	> 6.00	
COc1cc(-c2ncn(/C=C\c3ccccc3)n2)cc(C(F)(F)F)c1 [Compound I-38, (Z)-3-(3-methoxy-5-(trifluoromethyl)phenyl)-1-styryl-1H-1,2,4-triazole]	< 5.00	
CC(C)Oc1cc(-c2ncn(/C=C\c3ccccc3)n2)cc(C(F)(F)F)c1 [Compound I-39, (Z)-3-(3-isopropoxy-5-(trifluoromethyl)phenyl)-1-styryl-1H-1,2,4-triazole]	< 5.00	
(Z)-2-(2-(3-(3-chloro-5-(trifluoromethoxy)phenyl)-1H-1,2,4-triazol-1-yl)vinyl)-1,3,4-oxadiazole [Compound I-32]		pIC50 (Crm1 [2]): > 6.00
